Reference: patent US10800816B2 (Baxalta GmbH, priority 2012, dated 2020)
Where two headings read alike, the source gives them in different places. *1 amine or outer side, *2 acyl side, *3 side chain or, on linkers, in order; H or OH if unused. Where a SMILES comes first, the peptide text is derived from it. Side-chain parts run from the residue outwards. [ ]: non-standard residue; d: D form. The star is where a group is joined. X1 = CCCCCCCCCCCCCC(=O)NCCCOCCOCCOCCCN*; Suc = O=C(CCC(=O)[*:2])[*:1]; Tle = CC(C)(C)[C@H](N)C(=O)O; Hexanoyl = CCCCCC(=O)*; Aib = CC(C)(N)C(=O)O; Acm = CC(=O)NC*

What was measured:
[1] = test system: Tissue Factor Pathway Inhibitor (TFPI); experiment: IC50 ELISA | Mean IC50 [nM]
[2] = test system: Tissue Factor Pathway Inhibitor (TFPI); experiment: IC50 ELISA | IC50 [nM]
Excerpt: Table printed on a drawing sheet, FIGURE 78N
(§1) Head of the field: IC50 ELISA | IC50 [nM]

[3] = test system: Tissue Factor Pathway Inhibitor (TFPI); experiment: IC50 ELISA | Mean IC50 [nM]; remark: listed apart in the source
TFPI [4] = experiment: Extrinsic Tenase Inhibition by TFPI | % Inhibit (2.5µM)
TFPI [5] = experiment: Progress Curves of Inhibition of FXa | % Inhibit (2.5µM)
[6] = test system: Tissue Factor Pathway Inhibitor (TFPI); experiment: IC50 ELISA | Mean IC50 [nM]; remark: listed apart in the source
TFPI [7] = experiment: IC50 ELISA | Mean IC50 [nM]
TFPI [8] = experiment: Progress Curves of Inhibition of FXa | % Inhibit (2.5µM); remark: listed apart in the source
Protocol: Head of the field: Progress Curves of Inhibition of FXa | % Inhibit (2.5µM)
“*” denotes negative controls.

[9] = test system: Tissue Factor Pathway Inhibitor (TFPI); experiment: IC50 ELISA | Mean IC50 [nM]; remark: listed apart in the source
TFPI [10] = experiment: Progress Curves of Inhibition of FXa | % Inhibit (2.5μM)
Protocol: Head of the field: Progress Curves of Inhibition of FXa | % Inhibit (2.5μM)

TFPI [11] = experiment: Extrinsic Tenase Inhibition by TFPI | % Inhibit (2.5μM )
TFPI [12] = experiment: Progress Curves of Inhibition of FXa | % Inhibit (2.5µM); remark: listed apart in the source
[13] = test system: Tissue Factor Pathway Inhibitor (TFPI); experiment: IC50 ELISA | IC50 [nM]; remark: listed apart in the source
Excerpt: Table printed on a drawing sheet, FIGURE 78Q
as §1

[14] = test system: Tissue Factor Pathway Inhibitor (TFPI); experiment: IC50 ELISA | IC50 [nM]; remark: listed apart in the source
Excerpt: Table printed on a drawing sheet, FIGURE 78E
as §1

[15] = test system: Tissue Factor Pathway Inhibitor (TFPI); experiment: IC50 ELISA | Mean IC50 [nM]; remark: listed apart in the source
[16] = test system: Tissue Factor Pathway Inhibitor (TFPI); experiment: IC50 ELISA | IC50 [nM]; remark: listed apart in the source
Excerpt: Table printed on a drawing sheet, FIGURE 78R
as §1

TFPI [17] = experiment: IC50 ELISA | Mean IC50 [nM]; remark: listed apart in the source
Excerpt: Table printed on a drawing sheet, FIGURE 78Z
Head of the field: IC50 ELISA | Mean IC50 [nM]
First copying reader's note: Continued table: the first body row (45.67) belongs to a compound on the preceding sheet, the last row probably continues on the next sheet, and cells with several values list single replicates.

TFPI [18] = experiment: IC50 ELISA | Mean IC50 [nM]; remark: listed apart in the source

Ac-FQSKpNVHVDGYFERL-Aib-AKLC(ME-120MA)-NH2 [JBT00002326]
IC50 [1]: 9.3 nM

Ac-FQSKpNVH-Nmv-DGYFERL-Aib-AKLC(NEM)-NH2 [JBT00002387]
IC50 [2]: > 500 nM

Ac-FQSKpNVHVDGYFERL-Aib-AKLK(AOA-40kDa PSA)- NH2 [JBT00002430]
IC50 [3]: 15.4 nM

Ac-SGGRKHKHFLRSNGKPSRALSS-NH2 (SEQ [JBT0424]
Extrinsic Tenase Inhibition by TFPI | % Inhibit ([…]) (TFPI [4]): 0%
Progress Curves of Inhibition of FXa | % Inhibit ([…]) (TFPI [5]): 1%

Ac-FQSK-nma-NVHVDGYFERL-Aib-AKL-NH2 [JBT00002280]
IC50 [6]: 4.6 nM

Ac-FQSK-Nmg-NVFVFGYFERLRAKL-NH2 [JBT00000500]
IC50 (TFPI [7]): 93.4 nM

Ac- KKLTGDWTYFWSKVIWGPGVIERQMPVSTFH KK-NH2 (SEQ ID NO: 3065) (Ac-KKLTGDWTYFWSKVIWGPGVIERQMPVSTFHKK-NH2) [JBT0177*]
Progress Curves of Inhibition of FXa | % Inhibit ([…]) (TFPI [8]): 4%

FAM-Ttds-FQSK-Nmg-NVFVDGYFERL-Aib-AKL-NH2 [JBT00002262]
IC50 [9]: 13.4 nM

Ac- KKPLAVQLHVSKRSKEMALARLYYKTSKK- NH2 (SEQ ID NO: 2129) (Ac-KKPLAVQLHVSKRSKEMALARLYYKTSKK-NH2) [JBT0229]
Progress Curves of Inhibition of FXa | % Inhibit ([…]) (TFPI [10]): 0%
Extrinsic Tenase Inhibition by TFPI | % Inhibit ([…]) (TFPI [11]): 0%

Ac-KWFCGMRDMKGTMSCVWVKFRYDTS- [JBT0324]
Progress Curves of Inhibition of FXa | % Inhibit ([…]) (TFPI [12]): 0%

Ac-FQVH-Tle-DGYFERL-Aib-AKL-NH2 [JBT00002428]
IC50 [13]: > 500 nM

Ac-FQSKKNVFV-NH2 [JBT00002258]
IC50 [14]: > 5000 nM

Ac-FQ-Ede(O)-KpNVH-Tle-DaYFERL-Aib-AKL-NH2 [JBT00002453]
IC50 [15]: 7.9 nM

Ac-FqVH-Tle-DGYFERL-Aib-AKL-NH2 [JBT00002429]
IC50 [16]: > 500 nM

CCCCCCCCCCCCCC(=O)NCCCOCCOCCOCCCNC(=O)CCC(=O)NCCCC[C@H](NC(=O)[C@H](CC(C)C)NC(=O)[C@H](CCCCN)NC(=O)[C@H](C)NC(=O)C(C)(C)NC(=O)[C@H](CC(C)C)NC(=O)[C@H](CCCNC(=N)N)NC(=O)[C@H](CCC(=O)O)NC(=O)[C@H](Cc1ccccc1)NC(=O)[C@H](Cc1ccc(O)cc1)NC(=O)[C@@H](C)NC(=O)[C@H](CC(=O)O)NC(=O)[C@@H](NC(=O)[C@H](Cc1c[nH]cn1)NC(=O)[C@@H](NC(=O)[C@H](CSCNC(C)=O)NC(=O)[C@H]1CCCN1C(=O)[C@H](CCCCN)NC(=O)[C@H](CO)NC(=O)[C@H](CCC(N)=O)NC(=O)[C@H](Cc1ccccc1)NC(=O)CCCCC)C(C)C)C(C)(C)C)C(N)=O [JBT00002531, Hex-FQSKp-Cys(Acm)-VH-Tle-DaYFERL-Aib-AKLK(Ttds- Myr)--NH2] (Hexanoyl-FQSK[dP]C(Acm)VH[Tle]D[dA]YFERL[Aib]AKLK([Suc-X1])-NH2)
IC50 (TFPI [17]): 27 nM
IC50 (TFPI [18]): 27.2 nM

Ac- KKVGSVTRWSMYGPIFIKFTWTLEQPVGWDH KK-NH2 (SEQ ID NO: 3056) (Ac-KKVGSVTRWSMYGPIFIKFTWTLEQPVGWDHKK-NH2) [JBT0176*]
Progress Curves of Inhibition of FXa | % Inhibit ([…]) (TFPI [8]): 0%
